Measured values as given in patent US9709557B2, “Anthraquinone based near IR emitting compounds and uses thereof” (LIFE TECHNOLOGIES CORPORATION, priority 2008, dated 2017).

What was measured:
Live Jurkat cells [1] = assay: DNA staining of live cells and cell cycle analysis using flow cytometry (Examples 42, 43); type: cell-based, human
Experimental: Live Jurkat cells are suspended at 5×10^5 cells/ml in each RPMI media with 10% FBS. Compound 19 is added to each of one mL cell suspensions at concentrations 5 μM, 10 μM, and 20 μM, and then incubated at 37° C. for 30 minutes while protected from light. Cells are run through the Becton Dickinson (BD) LSRII Flow Cytometer. Forward Scatter (FS) vs Side Scatter (SS) dual parameter plot is used to gate main cell population. Fluorescence is collected using […]: the 488 nm excitation laser with 780/60 bandpass emission filter, and using the 633 nm excitation laser with 780/60 bandpass emission filters, collecting 10,000 events at flow rate of ˜200 events/second. The data is further analyzed using MODFIT LT Flow Cytometry Modeling Software from Verity Software House, Inc. to look at ratio of G2/G1 and the % CV of G1 phase. […] Typical DNA content cell cycle histograms indicate G0G1 phase, S phase, and G2M phase, as obtained on the live cell gate, with all concentrations of the compound.
Live Jurkat cells suspended in RPMI media+10% FBS were stained with 5 μM, 10 μM, and 20 μM Compound 20 and analyzed with flow cytometry, as described in Example 42.

HeLa and U2OS cells = type: cell-based
Experimental: HeLa and U2OS cells were stained with DRAQ5, Hoechst 33342, mitoxantrone, and Compound 9 over a range of concentrations to evaluate the effect of the tested DNA stains on cell proliferation over time. HeLa and U2OS cells were plated at 3000 cells/well and allowed to recover overnight before proceeding with dye incubations. Cells were incubated with 0, 1, 5 or 10 μM Compound 9, Hoechst 33342, mitoxantrone, and DRAQ5 for 30 minutes at culture conditions in DPBS with glucose, washed and then placed back into media at culture conditions. Plates were stained with 100 nM YOYO-1 (Invitrogen Corporation) before being fixed and stained with 1:1000 Hoechst 33342 (total cell number) at 24, 48 and 72 hours post dye incubation. Cells were imaged with the ArrayScan VTI immediately following staining and fixation. Data obtained were from repetitions of 4 wells/condition with 10 images taken per well.

Live Jurkat cells [2] = assay: Comparison of DNA stains on cell viability (Example 44); type: cell-based; settings: for % Dead Cells: ethidium homodimer-1
Experimental: Live Jurkat cells are suspended at 5×10^5 cells/ml in complete RPMI media with 10% FBS. Four aliquots of 10 ml each of the cell suspension are made. A final concentration of 5 μM Hoechst 33342 (Invitrogen Corporation) is added to one aliquot, a final concentration of 5 μM DRAQ5 (Biostatus Limited, UK) is added to one aliquot, a final concentration of 5 μM Compound 9 is added to one aliquot, and one aliquot remains untreated as a control. All four aliquots are placed in a 37° C. waterbath for 30 minutes in protected from light. After the incubation, all cell suspensions are centrifuged, the cells are pelleted and the supernatant discarded. To each aliquot, 5 ml media is added. Four culture flasks are prepared by adding 35 ml media to each. One 5 ml aliquot of cells is added to one flask for each on the four cell suspensions aliquots. The flasks are placed in a 37° C. incubator with 5% CO2 in the dark for 72 hours. Each flask of cells is then gently mixed and cell suspension is removed for testing. The cell concentration and image is performed using the Cellometer instrument from Nexcelom. Percentage and absolute cell counts of live and dead cells for each treatment are determined using the LIVE/DEAD Viability/Cytotoxicity Kit (Invitrogen Corporation, Carlsbad, Calif.) with COUNTBRIGHT Absolute Counting Beads (Invitrogen Corporation). This involves adding one ml cell suspension to a 12×75 mm test tube and adding 2 μl of a 50 μM calcein AM solution to identify living cells and 4 μl of a 2 mM ethidium homodimer-1 solution to identify dead cells. The cell suspension is mixed and incubated for 20 minutes at room temperature protected from light. After the end of the incubation, 50 μl of well mixed COUNTBRIGHT absolute counting beads are added to each test tube. Each sample is run through the Becton Dickinson (BD) LSRII Flow Cytometer. Forward Scatter (FS) versus Side Scatter (SS) dual parameter plot is used to gate main cell population, and a separate gate is made around the bead population. Fluorescence is collected using 488 nm excitation laser with 530/30 bandpass and 610/20 bandpass emission filters. Markers on a dual parameter plot of calcein fluorescence versus ethidium homodimer-1 fluorescence is used to obtain percent of cells which are living and dead, as well as number of cell events recorded. By using the COUNTBRIGHT absolute counting beads assay, the absolute number of living and dead cells is calculated by using the equation: A/B×C/D=concentration of cells/μL (A=number of cell events, B=number of bead events, C=assigned bead count, D=volume of the sample in μl).

Jurkat cells = assay: Comparison of DNA stains for staining live cells, post-sort viability and growth (Example 45); type: cell-based; settings: 5 μM
Experimental: Jurkat cells were suspended at 5×10^5 cells/ml in complete RPMI media with 10% FBS and stained with either 5 μM Compound 9, 5 μM Hoechst 33342, or 5 μM DRAQ5 for 30 minutes at 37° C. protected from light. A control sample was also prepared with no dye treatment. Cells were washed and resuspended at 1×10^7 cells/ml in Complete RPMI+10% FBS media for sorting. Approximately 2 million Jurkat cells were sorted for each treatment by gating on the main cell population by scatter using a BD FACS Aria cell sorter. Cells were washed and plated at 1×10^5 cells/ml in complete media and grown at 37 C with 5% CO2. Cell Viability was assayed using the LIVE/DEAD Viability/Cytotoxicity Kit at 1, 2, and 3 days post sort (as described in Example 44). Brightfield images of cell growth after 8 days cell growth were collected. […] The percent of live cells decreased similarly in both Compound 9 and Hoechst 33342 treatments.

[3] = 20 μM, RPMI media+10% FBS, blue 488 laser, 780/60 emission
[4] = 20 μM, RPMI media+10% FBS, red 633 nm laser, 780/60 emission
[5] = 5 μM dye 30 min 37° C., then 72 hours culture

Compound: CN(C)CCNC(=O)CNc1ccc(O)c2c1C(=O)c1c(N)ccc(O)c1C2=O [Compound 19]
- % CV of G1-phase (Live Jurkat cells [1]; [3]): 8.0%
- G2/G1 ratio (Live Jurkat cells [1]; [3]): 1.86
- % CV of G1-phase (Live Jurkat cells [1]; [4]): 6.43%
- G2/G1 ratio (Live Jurkat cells [1]; [4]): 1.83
- % CV of G1-phase (Live Jurkat cells [1]; 5, 10, 20 μM, MODFIT analysis): < 8%

Compound: CN(C)CCNC(=O)CNc1ccc(N)c2c1C(=O)c1c(O)ccc(O)c1C2=O [Compound 20]
- % CV of G1-phase (Live Jurkat cells [1]; [4]): 6.41%
- G2/G1 ratio (Live Jurkat cells [1]; [4]): 1.84

Compound: CN(C)CCNc1ccc(O)c2c1C(=O)c1c(O)ccc(NCCN(C)C)c1C2=O [DRAQ5]
- membrane permeability indicated by YOYO-1 (HeLa and U2OS cells): high membrane permeability
- % Dead Cells (Live Jurkat cells [2]; [5]): 95.7%

Compound: CCOc1ccc(-c2nc3ccc(-c4nc5ccc(N6CCN(C)CC6)cc5[nH]4)cc3[nH]2)cc1 [Hoechst 33342]
- Cell Count (Cellometer) (Live Jurkat cells [2]; [5]): 2.6 × 10^5 cells/mL
- Cell Count (Flow Cytommetry) (Live Jurkat cells [2]; [5]): 0.9 × 10^5 cells/mL
- % Living Cells (Live Jurkat cells [2]; 5 μM dye 30 min 37° C., then 72 hours culture, calcein AM): 57.7%
- % Dead Cells (Live Jurkat cells [2]; [5]): 39.3%
- effect of treatment on cell viability (Live Jurkat cells [2]; 5 μM, 72 hours): maintained a majority of cells as living
- post-sort viability / cytotoxicity (Jurkat cells; 30 min 37° C., sorted, 1, 2 and 3 days post sort): very similar in post-sort viability, but less than non-stained control cells
- cell growth after sort (Jurkat cells; day 3 and 8 days post sort): beginning to divide again
